Data from ChEMBL document CHEMBL2057163, “Pyridofuran substituted pyrimidine derivatives as HCV replication (replicase) inhibitors” (Bioorg Med Chem Lett, 2012).

Columns and labels:
[1] = Cytotoxicity against human hepatoma cells after 3 days by MTS assay; format: cell-based
Hepatitis C virus = test: Antiviral activity against Hepatitis C virus 1b con1 infected in human hepatoma cells assessed as decrease in replicon RNA level after 3 days by RT-PCR analysis; format: functional, organism-based, Hepacivirus hominis; conditions: Con1, 72 h
[2] = Cytotoxicity against human hepatoma cells assessed as decrease in GAPDH RNA level after 3 days by RT-PCR analysis; format: cell-based
[3] = AUC (0 to 6 hrs) in rat at 10 mg/kg, po; format: ADME, organism-based; set-up: time < 6 hr, dose 10 mg/kg, route oral; conditions: plasma
Liver = test: Drug uptake in rat liver assessed per gram of tissue at 10 mg/kg, po measured at 6 hrs; format: ADME, organism-based; set-up: dose 10 mg/kg, route oral; conditions: in vivo

Row | SMILES | CC50 at 72 h [1] [µM] | EC50 (Hepatitis C virus) [µM] | CC50 at 72 h [2] [µM] | AUC(0-t) at 6 h [3] [µM·h] | liver concentration (Liver) [ng/g]
1 | CCc1cc2cc(-c3c(C)nc(NC)nc3N[C@@H]3C[C@H](CO)[C@@H](O)[C@H]3O)oc2cn1 | > 25 | 0.03 | > 25 |  | 
2 | CCc1cc2cc(-c3c(C)nc(NCCCC(F)(F)F)nc3N[C@@H]3C[C@H](CO)[C@@H](O)[C@H]3O)oc2cn1 | > 25 | 0.02 | 17 |  | 
3 | Cc1nccc2cc(-c3c(Cl)nc(N)nc3N[C@@H]3C[C@H](CO)[C@@H](O)[C@H]3O)oc12 | > 25 | 0.12 | > 25 |  | 
4 | COc1cc(CNc2nc(C)c(-c3cc4cc(OC)nc(C)c4o3)c(N[C@@H]3C[C@H](CO)[C@@H](O)[C@H]3O)n2)cc(OC)c1.Cl |  |  |  | 0.5 | 178
5 | CCOc1cc2cc(-c3c(C)nc(Nc4ccccc4)nc3N[C@@H]3C[C@H](CO)[C@@H](O)[C@H]3O)oc2c(C)n1.Cl |  |  |  | 18.5 | 8980
6 | Nc1nc(Cl)c(-c2cc3cccnc3o2)c(N[C@@H]2C[C@H](CO)[C@@H](O)[C@H]2O)n1 | 19 | 0.4 |  |  | 
7 | CCc1cc2cc(-c3c(Cl)nc(N)nc3N[C@@H]3C[C@H](CO)[C@@H](O)[C@H]3O)oc2c(C)n1 | 16 | 0.01 | 13 |  | 
8 | CCc1cc2cc(-c3c(C)nc(NCCCC(F)(F)F)nc3N[C@@H]3C[C@H](CO)[C@@H](O)[C@H]3O)oc2cn1.Cl |  |  |  | 0.9 | 1000
9 | CCOc1cc2cc(-c3c(C)nc(NCCOC)nc3N[C@@H]3C[C@H](CO)[C@@H](O)[C@H]3O)oc2c(C)n1.Cl |  |  |  | 1.1 | 285
10 | CCc1cc2cc(-c3c(C)nc(NCC(C)C)nc3N[C@@H]3C[C@H](CO)[C@@H](O)[C@H]3O)oc2cn1 | 12 | 0.08 | 7 |  | 
11 | Cc1cc2cc(-c3c(Cl)nc(N)nc3N[C@@H]3C[C@H](CO)[C@@H](O)[C@H]3O)oc2cn1 | 25 | 0.03 | 9 |  | 
12 | CNc1nc(C)c(-c2cc3cc(OC)nc(C)c3o2)c(N[C@@H]2C[C@H](CO)[C@@H](O)[C@H]2O)n1.Cl |  |  |  | 2.7 | 310
13 | COc1cc2cc(-c3c(Cl)nc(N)nc3N[C@@H]3C[C@H](CO)[C@@H](O)[C@H]3O)oc2c(C)n1.Cl |  |  |  | 0.1 | 
14 | Cc1cncc2oc(-c3c(Cl)nc(N)nc3N[C@@H]3C[C@H](CO)[C@@H](O)[C@H]3O)cc12 | > 25 | 1.4 | 25 |  | 
15 | CCc1nc(C)cc2cc(-c3c(Cl)nc(N)nc3N[C@@H]3C[C@H](CO)[C@@H](O)[C@H]3O)oc12 | 20 | 0.03 | 9 |  | 
16 | CCOc1cc2cc(-c3c(C)nc(Nc4ccccc4)nc3N[C@@H]3C[C@H](CO)[C@@H](O)[C@H]3O)oc2c(C)n1 | 18 | 0.15 | 24 |  | 
17 | CCCCCNc1nc(C)c(-c2cc3cc(CC)ncc3o2)c(N[C@@H]2C[C@H](CO)[C@@H](O)[C@H]2O)n1 | 3 | 0.03 | 3 |  | 
18 | CNc1nc(C)c(-c2cc3cc(OC)nc(C)c3o2)c(N[C@@H]2C[C@H](CO)[C@@H](O)[C@H]2O)n1 | 25 | 0.06 | > 25 |  | 
19 | COc1cc(CNc2nc(C)c(-c3cc4cc(OC)nc(C)c4o3)c(N[C@@H]3C[C@H](CO)[C@@H](O)[C@H]3O)n2)cc(OC)c1 | 25 | 0.01 | > 25 |  | 
20 | COc1cc2cc(-c3c(Cl)nc(N)nc3N[C@@H]3C[C@H](CO)[C@@H](O)[C@H]3O)oc2c(C)n1 | 25 | 0.01 |  |  | 
21 | CCOc1cc2cc(-c3c(C)nc(NCc4cc(OC)cc(OC)c4)nc3N[C@@H]3C[C@H](CO)[C@@H](O)[C@H]3O)oc2c(C)n1.Cl |  |  |  | 0.35 | 238
22 | CCOCCNc1nc(C)c(-c2cc3cc(CC)ncc3o2)c(N[C@@H]2C[C@H](CO)[C@@H](O)[C@H]2O)n1 | 16 | 0.004 | 4 |  | 
23 | CCOc1cc2cc(-c3c(C)nc(NC)nc3N[C@@H]3C[C@H](CO)[C@@H](O)[C@H]3O)oc2c(C)n1.Cl |  |  |  | 1.4 | 238
24 | COc1cc2cc(-c3c(C)nc(NCC(C)(C)C)nc3N[C@@H]3C[C@H](CO)[C@@H](O)[C@H]3O)oc2c(C)n1.Cl |  |  |  | 4.4 | 1180

Row | SMILES | CC50 at 72 h [1] [µM] | EC50 (Hepatitis C virus) [µM] | CC50 at 72 h [2] [µM] | AUC(0-t) at 6 h [3] [µM·h] | liver concentration (Liver) [ng/g]
25 | CCOc1cc2cc(-c3c(C)nc(NCC4CC4)nc3N[C@@H]3C[C@H](CO)[C@@H](O)[C@H]3O)oc2c(C)n1 | 25 | 0.02 | 25 |  | 
26 | CCc1cc2cc(-c3c(Cl)nc(N)nc3N[C@@H]3C[C@H](CO)[C@@H](O)[C@H]3O)oc2c(CC)n1 | 16 | 0.02 | 25 |  | 
27 | CCc1cc2cc(-c3c(Cl)nc(N)nc3N[C@@H]3C[C@H](CO)[C@@H](O)[C@H]3O)oc2cn1 | 22 | 0.01 | 12 |  | 
28 | CCOc1cc2cc(-c3c(C)nc(NCC(C)(C)C)nc3N[C@@H]3C[C@H](CO)[C@@H](O)[C@H]3O)oc2c(C)n1.Cl |  |  |  | 6.8 | 2330
29 | CCc1cc2cc(-c3c(Cl)nc(N)nc3N[C@@H]3C[C@H](CO)[C@@H](O)[C@H]3O)oc2cn1.Cl |  |  |  | 0.07 | 
30 | CCOc1cc2cc(-c3c(C)nc(NCc4cc(OC)cc(OC)c4)nc3N[C@@H]3C[C@H](CO)[C@@H](O)[C@H]3O)oc2c(C)n1 | > 25 | 0.002 | > 25 |  | 
31 | CCc1cc2cc(-c3c(C)nc(NCC(C)C)nc3N[C@@H]3C[C@H](CO)[C@@H](O)[C@H]3O)oc2cn1.Cl |  |  |  | 4.5 | 251
32 | CCc1cc2cc(-c3c(C)nc(NCC(C)(C)C)nc3N[C@@H]3C[C@H](CO)[C@@H](O)[C@H]3O)oc2cn1 | 11 | 0.03 | 10 |  | 
33 | CCOc1cc2cc(-c3c(C)nc(NCC(C)(C)C)nc3N[C@@H]3C[C@H](CO)[C@@H](O)[C@H]3O)oc2c(C)n1 | 23 | 0.05 | 12 |  | 
34 | CCOc1cc2cc(-c3c(C)nc(NCC(F)(F)F)nc3N[C@@H]3C[C@H](CO)[C@@H](O)[C@H]3O)oc2c(C)n1 | > 25 | 0.02 | > 25 |  | 
35 | CCc1cc2cc(-c3c(Cl)nc(N)nc3N[C@@H]3C[C@H](CO)[C@@H](O)[C@H]3O)oc2c(CC)n1.Cl |  |  |  | 0.17 | 
36 | CCc1nccc2cc(-c3c(Cl)nc(N)nc3N[C@@H]3C[C@H](CO)[C@@H](O)[C@H]3O)oc12 | 24 | 0.02 | 19 |  | 
37 | CCOc1cc2cc(-c3c(C)nc(NCCOC)nc3N[C@@H]3C[C@H](CO)[C@@H](O)[C@H]3O)oc2c(C)n1 | > 25 | 0.009 | > 25 |  | 
38 | Nc1nc(Cl)c(-c2cc3ncccc3o2)c(N[C@@H]2C[C@H](CO)[C@@H](O)[C@H]2O)n1 | 21 | > 25 |  |  | 
39 | Nc1nc(Cl)c(-c2cc3cnccc3o2)c(N[C@@H]2C[C@H](CO)[C@@H](O)[C@H]2O)n1 | 25 | 1.7 |  |  | 
40 | CCc1cc2cc(-c3c(C)nc(NCc4cc(OC)cc(OC)c4)nc3N[C@@H]3C[C@H](CO)[C@@H](O)[C@H]3O)oc2cn1 | 20 | 0.003 | > 25 |  | 
41 | COc1cc2cc(-c3c(C)nc(NCC(C)(C)C)nc3N[C@@H]3C[C@H](CO)[C@@H](O)[C@H]3O)oc2c(C)n1 | 21 | 0.04 | 17 |  | 
42 | CCc1cc2cc(-c3c(C)nc(NCC(F)(F)F)nc3N[C@@H]3C[C@H](CO)[C@@H](O)[C@H]3O)oc2cn1 | 15 | 0.02 | 13 |  | 
43 | CCc1nccc2cc(-c3c(Cl)nc(N)nc3N[C@@H]3C[C@H](CO)[C@@H](O)[C@H]3O)oc12.Cl |  |  |  | 0.05 | 
44 | CCOc1cc2cc(-c3c(C)nc(NC)nc3N[C@@H]3C[C@H](CO)[C@@H](O)[C@H]3O)oc2c(C)n1 |  | 0.05 | > 25 |  | 
45 | CCc1cc2cc(-c3c(Cl)nc(N)nc3N[C@@H]3C[C@H](CO)[C@@H](O)[C@H]3O)oc2c(C)n1.Cl |  |  |  | 0.01 | 
46 | Cc1cc2cc(-c3c(Cl)nc(N)nc3N[C@@H]3C[C@H](CO)[C@@H](O)[C@H]3O)oc2c(C)n1.Cl | 22 | 0.01 | 15 | 0.01 | 
47 | Nc1nc(Cl)c(-c2cc3ccncc3o2)c(N[C@@H]2C[C@H](CO)[C@@H](O)[C@H]2O)n1 | 25 | 0.07 | 25 |  | 
